What was measured:
Hedgehog pathway = experiment: Inhibition of the Hedgehog pathway in cell culture: C3H10T1/2 osteoblast differentiation, alkaline phosphatase assay; type: cell-based, Mouse; settings: approximate EC50 for inhibition, C3H10T1/2 cells, sonic Hedgehog 250 ng/ml, alkaline phosphatase activity normalized to total protein
Excerpt: Hedgehog pathway specific cancer cell killing effects may be ascertained using the following assay. C3H10T1/2 cells differentiate into osteoblasts when contacted with the sonic hedgehog peptide (Shh-N). Upon differentiation; these osteoblasts produce high levels of alkaline phosphatase (AP) which can be measured in an enzymatic assay (Nakamura et al., 1997 BBRC 237: 465). Compounds that block the differentiation of C3H10T1/2 into osteoblasts (a Shh dependent event) can therefore be identified by a reduction in AP production (van der Horst et al., 2003 Bone 33: 899). The assay details are described below. The results approximate (EC50 for inhibition) of the differentiation assay is shown below in Table 1.
Mouse embryonic mesoderm fibroblasts C3H10T1/2 cells (obtained from ATCC) were cultured in Basal MEM Media (Gibco/Invitrogen) supplemented with 10% heat inactivated FBS (Hyclone), 50 units/ml penicillin and 50 ug/ml streptomycin (Gibco/Invitrogen) at 37 C with 5% CO2 in air atmosphere.
C3H10T1/2 cells were plated in 96 wells with a density of 8×10^3 cells/well. Cells were grown to confluence (72 hrs). After sonic Hedgehog (250 ng/ml), and/or compound treatment, the cells were lysed in 110 μL, of lysis buffer (50 mM Tris pH 7.4, 0.1% TritonX100), plates were sonicated and lysates spun through 0.2 μm PVDF plates (Corning). 40 μL, of lysates was assayed for AP activity in alkaline buffer solution (Sigma) containing 1 mg/ml p-Nitrophenyl Phosphate. After incubating for 30 min at 37° C., the plates were read on an Envision plate reader at 405 nm. Total protein was quantified with a BCA protein assay kit from Pierce according to manufacturer's instructions. AP activity was normalized against total protein.

BXPC-3 cells = experiment: Pancreatic cancer model: BXPC-3 subcutaneous tumors in mice, tumor volume; type: in vivo, human; settings: 40 mg/kg/day, 25 daily doses, p=0.0309
Method: (§1) The activity of Compound 42 was tested in a human pancreatic model: BXPC-3 cells were implanted subcutaneously into the flanks of the right legs of mice. On day 42 post-tumor implant, the mice were randomized into two groups to receive either Vehicle (30% HPBCD) or Compound 42. Compound 42 was dosed at 40 mg/kg/day. […] At the end of the study, the tumors were harvested 4 hours post the last dose to evaluate an on target response by q-RT-PCR analysis of the HH pathway genes.

human Gli-1 = experiment: Pancreatic cancer model: q-RT-PCR of HH pathway genes in harvested tumors, human Gli-1; type: in vivo; settings: BXPC-3 tumors harvested 4 hours post last dose, 40 mg/kg/day
Method: as §1

murine Gli-1 mRNA = experiment: Pancreatic cancer model: q-RT-PCR of HH pathway genes in harvested tumors, murine Gli-1; type: in vivo; settings: BXPC-3 tumors harvested 4 hours post last dose, 40 mg/kg/day, vs Vehicle group
Method: as §1

Gli-1 mRNA = experiment: Medulloblastoma model: Ptch1/Hic1 subcutaneous allografts, Gli-1 mRNA expression; type: in vivo, mouse; settings: single oral dose, subcutaneously implanted medulloblastoma tumors, 8 hours post dose
Method: (§2) The activity of Compound 42 was also evaluated in a transgenic mouse model of medulloblastoma. Mice that are heterozygous for loss of function mutations in the tumor suppressors Patched1 (Ptch1) and Hypermethylated in Cancer (Hic1) develop spontaneous medulloblastoma. […] When passaged as subcutaneous allografts, these tumors grow aggressively and are Hedgehog pathway-dependent. This model was employed to evaluate the efficacy of orally administered Compound, and to correlate activity with drug exposure in plasma and tumors.

medulloblastoma = experiment: Medulloblastoma model: Ptch1/Hic1 subcutaneous allografts, tumor growth and survival; type: in vivo, mouse; settings: daily (QD) PO administration
Method: as §2
The approximate effective daily oral dose for 50% inhibition of tumor growth (ED50) is 4 mg/kg.

LX22 cells = experiment: Lung cancer model: LX22 primary SCLC xenograft in mice; type: in vivo, human
Excerpt: To test the activity of Compound 42 in a human SCLC tumor model, LX22 cells were implanted subcutaneously into the flank of the right leg. LX22 is primary xenograft model of SCLC derived from chemo-naive patients, which has been maintained by mouse to mouse passaging. This tumor responds to etoposide/carboplatin chemotherapy in way that closely resembles a clinical setting. LX22 regresses during chemotherapy treatment, goes through a period of remission, and then begins to recur. In the LX22 model, Compound single agent activity and its ability to modulate the chemoresistant recurrence was tested. On day 32 post tumor implant, mice were randomized into three dosing groups to receive Vehicle (30% HBPCD), Compound, or the chemotherapy combination of etoposide and carboplatin (E/P). […] Etoposide was administered i.v at 12 mg/kg on days 34, 35, 36, and 48, while Carboplatin was administered i.v. at 60 mg/kg on days 34, 41, and 48, post tumor implant. On day 50, the E/P treated mice were further randomized to receive either Vehicle (30% HPBCD) or Compound follow up treatment.

Oral multi-dose MTD = type: in vivo, mice

**Q.** With `CC1=C2C[C@H]3[C@@H](CC=C4C[C@@H](O)CC[C@@]43C)[C@@H]2CC[C@@]2(C1)O[C@@H]1C[C@H](C)CN[C@H]1[C@H]2C` [Compound 8] as the compound, how does the EC50 (Hedgehog pathway) read?
**A.** The EC50 was over 100 nM.

**Q.** With `CC1=C2C[C@H]3[C@@H](CC[C@@H]4CC(=O)CC[C@@]43C)[C@@H]2CC[C@@]2(C1)O[C@@H]1C[C@H](C)CN(C(C)C)[C@H]1[C@H]2C` [Compound 10] as the compound, how does the EC50 (Hedgehog pathway) read?
**A.** The EC50 was over 100 nM.

**Q.** For `CC1=C2C[C@H]3[C@@H](CC[C@@H]4C[C@H](NS(C)(=O)=O)CC[C@@]43C)[C@@H]2CC[C@@]2(C1)O[C@@H]1C[C@H](C)CN[C@H]1[C@H]2C` [Compound 42], which “reduction of tumor volume growth compared to vehicle control” value (BXPC-3 cells) is on record?
**A.** Its value is 40%.

**Q.** And the “human Gli-1 modulation (q-RT-PCR)” value (human Gli-1)?
**A.** Its value is “no modulation”.

**Q.** What about the “murine Gli-1 mRNA levels (q-RT-PCR)” value (murine Gli-1 mRNA) of the same compound?
**A.** The value was “robust down-regulation”.

**Q.** And the “HH pathway modulation measured by Gli-1 mRNA expression” value (Gli-1 mRNA)?
**A.** The value was “dose-dependent down-regulation of the HH pathway”.

**Q.** What about the tumor growth (medulloblastoma) of the same compound?
**A.** Its tumor growth is “dose dependent inhibition of tumor growth, with frank tumor regression seen at higher doses”.

**Q.** What about the “single agent activity, treated vs vehicle groups” value (LX22 cells; 40 mg/kg/day, 16 consecutive doses) of the same compound?
**A.** The value was “no measurable difference between the treated and vehicle groups”.

**Q.** And the “tumor recurrence after etoposide/carboplatin (E/P) chemotherapy” value (LX22 cells; follow up treatment from day 50, 40 mg/kg/day oral, 35 consecutive doses, vs vehicle, p=0.0101)?
**A.** The value was “substantial delay in tumor recurrence”.

**Q.** What about the “oral multi-dose MTD” value (Oral multi-dose MTD) of the same compound?
**A.** Its value is 40 mg/kg/day.

**Q.** Which EC50 (Hedgehog pathway; Mus musculus, C3H 10T1/2) does the source give for `CC1=C2C[C@H]3[C@@H](CC[C@@H]4C[C@@H](OC(=O)CN)CC[C@@]43C)[C@@H]2CC[C@@]2(C1)O[C@@H]1C[C@H](C)CN[C@H]1[C@H]2C` [Compound 40] here?
**A.** Its EC50 is under 20 nM.

Source: patent US11007181B2, “Cyclopamine analogs” (Infinity Pharmaceuticals, Inc., priority 2006, dated 2021)
